Measured values taken from publication PMC11661376, “A2B adenosine receptor-triggered intracellular calcium mobilization: Cell type-dependent involvement of Gi, Gq, Gs proteins and protein kinase C” (Research Square, 2024).

Molecular target: T1, P2Y1 receptor (P2Y1R) (Homo sapiens, UniProt P47900)
T1 construct: gene P2RY1; native receptor in T24 and HEK293 cells
Assay: agonist-induced intracellular Ca2+ mobilization (FLIPR) in T24 cells
Type: cell-based

T1 sequence (P47900 whole entry): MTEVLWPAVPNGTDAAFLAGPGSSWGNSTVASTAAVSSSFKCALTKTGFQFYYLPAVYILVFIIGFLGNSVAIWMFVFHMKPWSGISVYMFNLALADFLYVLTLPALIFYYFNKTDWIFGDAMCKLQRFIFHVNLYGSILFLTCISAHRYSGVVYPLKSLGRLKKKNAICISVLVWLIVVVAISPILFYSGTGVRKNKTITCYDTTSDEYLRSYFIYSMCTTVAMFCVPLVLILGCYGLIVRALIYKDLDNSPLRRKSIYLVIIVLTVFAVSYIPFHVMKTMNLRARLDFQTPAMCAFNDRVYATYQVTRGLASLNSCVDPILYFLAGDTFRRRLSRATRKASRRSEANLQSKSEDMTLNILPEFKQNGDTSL

EC50: 1.38 ± 0.26 nM
SMILES: CSc1nc(N)c2ncn([C@H]3[C@H](O)[C@H](O)[C@]4(COP(=O)(O)OP(=O)(O)O)C[C@H]34)c2n1 [MRS2365]
